From patent US9730445B2, “Herbicidal compositions comprising 4-amino-3-chloro-5-fluoro-6-(4-chloro-2-fluoro-3-methoxyphenyl) pyridine-2-carboxylic acid or a derivative thereof and fungicides” (DOW AGROSCIENCES LLC, priority 2013, dated 2017)

Tests used:
Assay in all cases: Postemergence foliar-applied weed control, direct-seeded rice (greenhouse)
DIGSA = type: in vivo, Digitaria sanguinalis (L.) Scop. (large crabgrass)
From the text: (§1) Seeds or nutlets of the desired test plant species were planted in a soil matrix prepared by mixing aloam or sandy loam soil (e.g., 28.6 percent silt, 18.8 percent clay, and 52.6 percent sand, with a pH of about 5.8 and an organic matter content of about 1.8 percent) and calcareous grit in an 80 to 20 ratio. The soil matrix was contained in plastic pots with a volume of 1 quart and a surface area of 83.6 square centimeters (cm^2). When required to ensure good germination and healthy plants, a fungicide treatment and/or other chemical or physical treatment was applied. The plants were grown for 8-22 days in a greenhouse with an approximate 14 hour (h) photoperiod which was maintained at about 29° C. during the day and 26° C. during the night. Nutrients (Peters Excel® 15-5-15 5-Ca 2-Mg and iron chelate) were applied in the irrigation solution as needed and water was added on a regular basis. Supplemental lighting was provided with overhead metal halide 1000-Watt lamps as necessary. The plants were employed for testing when they reached the first through fourth true leaf stage.
(§2) Treatments consisted of the acid or esters of 4-amino-3-chloro-5-fluoro-6-(4-chloro-2-fluoro-3-methoxy-phenyl)pyridine-2-carboxylic acid (Compound A), each formulated as an SC (suspension concentrate), and various fungicidal components alone and in combination. Forms of compound A were applied on an acid equivalent basis.
(§3) Treatment requirements were calculated based upon the rates being tested, the concentration of active ingredient or acid equivalent in the formulation and a 12 milliliter (mL) application volume at a rate of 187 liters per hectare (L/ha).
(§4) For treatments comprised of formulated compounds, measured amounts of compounds were placed individually in 25 mL glass vials and diluted in a volume of 1.25% volume per volume (v/v) Agri-Dex® crop oil concentrate to obtain 12× stock solutions. […] Application solutions were prepared by adding an appropriate amount of each stock solution (e.g., 1 mL) and diluted to the appropriate final concentrations with the addition of […] of an aqueous mixture of 1.25% (v/v) crop oil concentrate so that the final spray solutions contained 1.25+/−0.05% (v/v) crop oil concentrate.
(§5) For treatments comprised of technical compounds, weighed amounts can be placed individually in 25 mL glass vials and dissolved in a volume of 97:3 volume per volume (v/v) acetone/dimethyl sulfoxide (DMSO) to obtain 12× stock solutions. […] When technical materials are used, the concentrated stock solutions can be added to the spray solutions so that the final acetone and DMSO concentrations of the application solutions are 16.2% and 0.5%, respectively.
(§6) As required, additional water and/or 97:3 v/v acetone/DMSO was added to individual application solutions so that the final acetone and DMSO concentrations of the application solutions being compared were 8.1% and 0.25%, respectively
(§7) All stock solutions and applications solutions were visually inspected for compound compatibility prior to application. Spray solutions were applied to the plant material with an overhead Mandel track sprayer equipped with 8002E nozzles calibrated to deliver 187 L/ha over an application area of 0.503 square meters (m^2) at a spray height of 18 to 20 inches (46 to 50 cm) above average plant canopy height. Control plants were sprayed in the same manner with the solvent blank.
(§8) The treated plants and control plants were placed in a greenhouse as described above and watered by sub-irrigation to prevent wash-off of the test compounds. After approximately 3 weeks, the condition of the test plants as compared with that of the untreated plants was determined visually and scored on a scale of 0 to 100 percent where 0 corresponds to no injury or growth inhibition and 100 corresponds to complete kill. […]

ECHCO = type: in vivo, Echinochloa colonum (L.) LINK (junglerice); conditions: 21 DAA
From the text: as §1, §2, §3, §4, §5, §6, §7, §8

ECHCG = type: in vivo, Echinochloa crus-galli (L.) P. Beauv. (barnyardgrass)
Protocol: as §1, with “When required to ensure good germination and healthy plants, a fungicide treatment and/or other chemical or physical treatment was applied.” left out
as §2, §4, §5, §6, §7
(§9) The treated plants and control plants were placed in a greenhouse as described above and watered by sub-irrigation to prevent wash-off of the test compounds. After approximately 3 weeks, the condition of the test plants as compared with that of the untreated plants was determined visually and scored on a scale of 0 to 100 percent where 0 corresponds to no injury or growth inhibition and 100 corresponds to complete kill.
(§10) Colby's equation was used to determine the herbicidal effects expected from the mixtures (Colby, S. R. Calculation of the synergistic and antagonistic response of herbicide combinations. Weeds 1967, 15, 20-22.).
(§11) The following equation was used to calculate the expected activity of mixtures containing two active ingredients, A and B: Expected=A+B−(A×B/100)

LEFCH = type: in vivo, Leptochloa chinensis (L.) Nees (Chinese sprangletop); conditions: 21 DAA
Protocol: as §1, with “When required to ensure good germination and healthy plants, a fungicide treatment and/or other chemical or physical treatment was applied.” left out
as §2, §4, §5, §6, §7, §9, §10, §11

BRAPP = type: in vivo
From the text: as §1, §2, §3, §4, §5, §6, §7, §8

CYPES = type: in vivo, Cyperus esculentus L. (yellow nutsedge)
Protocol: as §1, with “When required to ensure good germination and healthy plants, a fungicide treatment and/or other chemical or physical treatment was applied.” left out
as §2, §4, §5, §6, §7, §8

CYPIR = type: in vivo, Cyperus iria L. (rice flatsedge)
Protocol: as §1, with “When required to ensure good germination and healthy plants, a fungicide treatment and/or other chemical or physical treatment was applied.” left out
as §2, §4, §5, §6, §7, §9, §10, §11

IPOHE = type: in vivo, Ipomoea hederacea (L.) Jacq. (ivyleaf morningglory)
Protocol: as §1, with “When required to ensure good germination and healthy plants, a fungicide treatment and/or other chemical or physical treatment was applied.” left out
as §2, §4, §5, §6, §7, §9, §10, §11

[1] = r38-39 ester 8/16 g ae/ha alone, r40 isotianil 380 g ai/ha alone, r41-42 ester 8/16 + 380
[2] = r9-11 ester 8/16/32 g ae/ha alone, r12-14 hexaconazole 25/50/100 g ai/ha alone, r15-23 ester 8/16/32 at each of 25, 50, 100
[3] = r29-30 ester 8/16 g ae/ha alone, r31-33 hexaconazole 25/50/100 g ai/ha alone, r34-39 ester 8/16 at each of 25, 50, 100
[4] = r10-12 ester 8/16/32 g ae/ha alone, r13-14 isoprothiolane 266/533 g ai/ha alone, r15-20 ester 8/16/32 at each of 266, 533

N#Cc1ccccc1NC(=O)c1snc(Cl)c1Cl [Isotianil, 3,4-dichloro-2′-cyano-1,2-thiazole-5-carboxanilide, reference compound]
0%: Visual Weed Control (%)—20 DAA DIGSA Obs (DIGSA; 20 DAA, r21-23 ester 8/16/32 g ae/ha alone, r24-25 isotianil 100/200 g ai/ha alone, r26-31 ester 8/16/32 at each of 100, 200) | Visual Weed Control (%)—21 DAA DIGSA Obs (DIGSA; 21 DAA, r38-39 ester 8/16 g ae/ha alone, r40 isotianil 380 g ai/ha alone, r41-42 ester 8/16 + 380) | Visual Weed Control (%)—21 DAA ECHCO Obs (ECHCO; [1]) | Visual Weed Control (%)—21 DAA ECHCG Obs (ECHCG; [1]) | Visual Weed Control (%)—21 DAA LEFCH Obs (LEFCH; [1]) | Visual Weed Control (%)—20 DAA BRAPP Obs (BRAPP; 20 DAA, r9-11 ester 8/16/32 g ae/ha alone, r12 isotianil 200 g ai/ha alone, r13-15 ester 8/16/32 + 200) | Visual Weed Control (%)—21 DAA BRAPP Obs (BRAPP; [1])

O=C1CCc2cccc3c2N1CC3 [Pyroquilon, 1,2,5,6-tetrahydropyrrolo[3,2,1-ij]quinolin-4-one, reference compound]
0%: Visual Weed Control (%) - 21 DAA CYPES Obs (CYPES; r11-12 ester 8/16 g ae/ha alone, r13 pyroquilon 925 g ai/ha alone, r14-15 ester 8/16 + 925) | Visual Weed Control (%) - 21 DAA CYPIR Obs (CYPIR; 21 DAA, r23-24 ester 16/32 g ae/ha alone, r25 pyroquilon 925 g ai/ha alone, r26-27 ester 16/32 + 925)

CO/C=C(/C(=O)OC)c1ccccc1Oc1cc(Oc2ccccc2C#N)ncn1 [Azoxystrobin, methyl (2E)-2-{2-[6-(2-cyanophenoxy)pyrimidin-4-yloxy]phenyl}3-methoxyacrylate, reference compound]
0%: Visual Weed Control (%) - 21 DAA DIGSA Obs (DIGSA; 21 DAA, r9-11 acid 5.3/10.6/21.2 g ae/ha alone, r12 azoxystrobin 250 g ai/ha alone, r13-15 acid 5.3/10.6/21.2 + 250) | Visual Weed Control (%) - 21 DAA DIGSA Obs (DIGSA; 21 DAA, r10-12 ester 4.38/8.75/17.5 g ae/ha alone, r13 azoxystrobin 250 g ai/ha alone, r14-16 ester 4.38/8.75/17.5 + 250) | Visual Weed Control (%) - 21 DAA IPOHE Obs (IPOHE; r9-11 acid 5.3/10.6/21.2 g ae/ha alone, r12 azoxystrobin 250 g ai/ha alone, r13-15 acid 5.3/10.6/21.2 + 250) | Visual Weed Control (%) - 21 DAA IPOHE Obs (IPOHE; r10-12 ester 4.38/8.75/17.5 g ae/ha alone, r13 azoxystrobin 250 g ai/ha alone, r14-16 ester 4.38/8.75/17.5 + 250) | Visual Weed Control (%) - 22 DAA BRAPP Obs (BRAPP; 22 DAA, r38-40 ester 8/16/32 g ae/ha alone, r41-42 azoxystrobin 125/250 g ai/ha alone, r43-48 ester 8/16/32 at each of 125, 250) | Visual Weed Control (%) - 22 DAA CYPIR Obs (CYPIR; 22 DAA, r22-23 ester 16/32 g ae/ha alone, r24-26 azoxystrobin 62.5/125/250 g ai/ha alone, r27-32 ester 16/32 at each of 62.5, 125, 250)

CCCCC(O)(Cn1cncn1)c1ccc(Cl)cc1Cl (racemic) [Hexaconazole, reference compound]
0%: Visual Weed Control (%)—21 DAA ECHCO Obs (ECHCO; [2]) | Visual Weed Control (%)—21 DAA ECHCG Obs (ECHCG; [2]) | Visual Weed Control (%)—21 DAA LEFCH Obs (LEFCH; [2]) | Visual Weed Control (%)—21 DAA IPOHE Obs (IPOHE; [3]) | Visual Weed Control (%)—21 DAA BRAPP Obs (BRAPP; [3]) | Visual Weed Control (%)—21 DAA CYPIR Obs (CYPIR; 21 DAA, r45 ester 8 g ae/ha alone, r46-48 hexaconazole 25/50/100 g ai/ha alone, r49-51 ester 8 + 25/50/100)

CC(C)OC(=O)C(C(=O)OC(C)C)=C1SCCS1 [Isoprothiolane, diisopropyl 1,3-dithiolan-2-ylidenemalonate, reference compound]
0%: Visual Weed Control (%) - 21 DAA CYPES Obs (CYPES; [4]) | Visual Weed Control (%) - 21 DAA LEFCH Obs (LEFCH; [4]) | Visual Weed Control (%) - 21 DAA CYPIR Obs (CYPIR; 21 DAA, r26-27 ester 16/32 g ae/ha alone, r28-29 isoprothiolane 266/533 g ai/ha alone, r30-33 ester 16/32 at each of 266, 533)
